Measurements published in article PMC4573970, “Further validation to support clinical translation of [^18F]FTC-146 for imaging sigma-1 receptors” (EJNMMI Research, 2015).

Assays:
sigma-1 receptor (S1R) = molecular target: T1, sigma-1 receptor (S1R) (Mus musculus, UniProt O55242); experiment: in vivo PET blocking of […]FTC-146 ([…] mg/kg), with S1R-KO control; type: cell-based
T1 construct: gene Sigmar1; native receptor in WT mouse brain

[1] = molecular target: T2, vesicular acetylcholine transporter (VAChT) (Homo sapiens, UniProt Q16572)
T2 construct: gene SLC18A3
T2 sequence (Q16572 1-532): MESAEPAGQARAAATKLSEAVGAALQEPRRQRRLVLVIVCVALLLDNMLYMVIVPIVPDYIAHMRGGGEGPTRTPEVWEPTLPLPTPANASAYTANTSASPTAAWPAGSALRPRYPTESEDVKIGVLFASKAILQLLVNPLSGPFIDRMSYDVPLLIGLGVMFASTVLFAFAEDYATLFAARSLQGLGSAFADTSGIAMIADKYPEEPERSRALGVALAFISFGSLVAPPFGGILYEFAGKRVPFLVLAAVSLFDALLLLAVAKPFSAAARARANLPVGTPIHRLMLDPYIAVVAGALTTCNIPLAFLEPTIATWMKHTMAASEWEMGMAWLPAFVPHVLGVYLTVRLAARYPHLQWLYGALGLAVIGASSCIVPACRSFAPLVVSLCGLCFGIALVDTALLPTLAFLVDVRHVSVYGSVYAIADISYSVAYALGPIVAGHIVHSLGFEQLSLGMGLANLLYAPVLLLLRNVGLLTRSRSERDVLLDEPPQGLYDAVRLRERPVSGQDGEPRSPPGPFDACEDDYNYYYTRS

T1 sequence (O55242 whole entry): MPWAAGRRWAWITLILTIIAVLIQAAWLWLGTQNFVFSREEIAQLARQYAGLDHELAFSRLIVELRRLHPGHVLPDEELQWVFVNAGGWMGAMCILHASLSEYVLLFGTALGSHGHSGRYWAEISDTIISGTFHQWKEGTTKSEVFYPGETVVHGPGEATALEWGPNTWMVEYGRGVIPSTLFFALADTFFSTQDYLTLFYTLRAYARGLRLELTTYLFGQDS

Row | Compound | in vivo PET blocking of [18F]FTC-146 (1 mg/kg), with S1R-KO control (sigma-1 receptor (S1R)) | Ki [1] [µM]
1 | CN(C)CCN(C)CCc1ccc(Cl)c(Cl)c1 [BD1047] | following receptor blocking with a known S1R antagonist (BD-1047), showed similarly rapid washout of tracer | 
2 | O=c1sc2cc(CCCF)ccc2n1CCN1CCCCCC1 [FTC-146] |  | 0.45 ± 0.08
